Earlier results as cited in patent US20210137903A1, “ANTI-ANDROGENS FOR THE TREATMENT OF PROSTRATE CANCER” (priority 2019, published 2021).

Columns and labels:
AR = AR (Homo sapiens, UniProt P10275); details: cited from earlier work
T877A AR mutant = molecular target: T1, T877A AR mutant (Homo sapiens, UniProt P10275, T878A); details: cited from earlier work
T1 sequence (P10275 1-920 T878A): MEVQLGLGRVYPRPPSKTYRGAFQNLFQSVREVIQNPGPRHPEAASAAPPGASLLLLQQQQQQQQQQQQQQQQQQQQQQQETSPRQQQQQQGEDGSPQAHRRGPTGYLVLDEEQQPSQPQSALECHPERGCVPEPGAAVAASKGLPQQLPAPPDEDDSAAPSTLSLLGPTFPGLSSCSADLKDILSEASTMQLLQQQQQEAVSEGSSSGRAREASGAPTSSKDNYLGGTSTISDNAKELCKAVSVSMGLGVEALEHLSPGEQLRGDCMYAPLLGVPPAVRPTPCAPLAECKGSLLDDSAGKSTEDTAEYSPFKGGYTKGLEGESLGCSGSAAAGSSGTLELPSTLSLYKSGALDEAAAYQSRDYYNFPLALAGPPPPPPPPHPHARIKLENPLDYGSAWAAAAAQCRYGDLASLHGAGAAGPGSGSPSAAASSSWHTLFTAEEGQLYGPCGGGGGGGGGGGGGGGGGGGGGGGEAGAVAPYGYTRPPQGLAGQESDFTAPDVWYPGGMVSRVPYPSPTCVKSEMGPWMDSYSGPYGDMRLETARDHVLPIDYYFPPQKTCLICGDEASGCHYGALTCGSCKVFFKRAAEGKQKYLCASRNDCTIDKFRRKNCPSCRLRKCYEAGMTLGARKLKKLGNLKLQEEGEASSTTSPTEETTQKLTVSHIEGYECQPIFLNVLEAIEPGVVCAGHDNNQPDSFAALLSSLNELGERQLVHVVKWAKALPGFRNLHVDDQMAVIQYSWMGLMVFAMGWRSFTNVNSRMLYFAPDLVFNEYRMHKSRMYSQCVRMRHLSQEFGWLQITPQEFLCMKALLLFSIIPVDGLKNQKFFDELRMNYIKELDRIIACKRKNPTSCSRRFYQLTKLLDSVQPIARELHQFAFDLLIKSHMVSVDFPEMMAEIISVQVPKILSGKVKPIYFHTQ

Sequence of AR (P10275 whole entry): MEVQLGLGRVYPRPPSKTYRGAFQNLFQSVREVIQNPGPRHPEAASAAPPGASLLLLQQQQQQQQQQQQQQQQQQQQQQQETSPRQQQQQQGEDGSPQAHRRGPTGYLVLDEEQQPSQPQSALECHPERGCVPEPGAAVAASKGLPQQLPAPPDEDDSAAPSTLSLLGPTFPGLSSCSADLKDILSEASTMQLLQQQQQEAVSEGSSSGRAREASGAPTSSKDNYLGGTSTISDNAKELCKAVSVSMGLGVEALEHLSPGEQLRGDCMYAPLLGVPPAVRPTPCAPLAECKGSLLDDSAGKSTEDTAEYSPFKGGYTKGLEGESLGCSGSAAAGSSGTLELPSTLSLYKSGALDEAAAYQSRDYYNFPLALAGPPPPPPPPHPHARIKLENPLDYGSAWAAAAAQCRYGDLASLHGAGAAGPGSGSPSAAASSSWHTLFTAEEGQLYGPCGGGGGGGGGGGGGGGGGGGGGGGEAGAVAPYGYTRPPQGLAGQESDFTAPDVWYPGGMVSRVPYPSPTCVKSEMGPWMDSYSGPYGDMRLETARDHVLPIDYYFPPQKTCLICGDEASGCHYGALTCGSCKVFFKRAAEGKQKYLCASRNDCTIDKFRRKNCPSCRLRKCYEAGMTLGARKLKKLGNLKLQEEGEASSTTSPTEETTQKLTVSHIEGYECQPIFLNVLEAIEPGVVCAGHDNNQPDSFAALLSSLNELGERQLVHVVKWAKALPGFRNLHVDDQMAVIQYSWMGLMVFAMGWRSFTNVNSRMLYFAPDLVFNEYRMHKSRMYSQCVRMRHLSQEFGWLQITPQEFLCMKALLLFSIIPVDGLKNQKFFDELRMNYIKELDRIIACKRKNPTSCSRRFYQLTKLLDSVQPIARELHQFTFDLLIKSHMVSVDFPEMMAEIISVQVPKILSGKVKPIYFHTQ

| Structure (SMILES) | affinity of binding to AR (AR) | AR agonist activity (T877A AR mutant) |
| --- | --- | --- |
| CC(O)c1cc(C(=O)N[C@@H](C)Cn2ccc(-c3ccc(C#N)c(Cl)c3)n2)[nH]n1 (some centres unmarked) [Darolutamide] | high affinity | – |
| CC(C)(O)C(=O)Nc1ccc([N+](=O)[O-])c(C(F)(F)F)c1 [hydroxyflutamide] | – | act as AR agonists |
